The data set has as its target CYP2C9 (Homo sapiens, UniProt P11712). The data set is described as follows: Inhibition of CYP2C9-catalyzed diclofenac 4-hydroxylation in pooled human liver microsomes. The data set is classed as in vitro ADME. More on the design: incubation mixtures containing pooled human liver microsomes (HLMs, XTreme 200, XenoTech); tissue XenoTech XTreme 200; host or cells: pooled human liver microsomes. As for the experimental part: The inhibitory potential of the five biflavonoids on the metabolism of nine P450 probe substrates was evaluated using previously developed methods with minor modifications. Biflavonoids were dissolved in methanol. The final concentration of methanol in the incubation mixture was 1.0% (v/v). We used these P450 probe substrates: phenacetin for CYP1A2, coumarin for CYP2A6, bupropion for CYP2B6, amodiaquine for CYP2C8, diclofenac for CYP2C9, omeprazole for CYP2C19, dextromethorphan for CYP2D6, chlorzoxazone for CYP2E1 and midazolam for CYP3A (Table 1). […] The reaction was stopped by adding 50 μL of ice-cold acetonitrile containing 7 nM trimipramine (internal standard, IS). After centrifugation at 18,000 g (5 min, 4 °C), aliquots of supernatants were analyzed by LC-MS/MS (Shimadzu LCMS 8060 system, Shimadzu, Kyoto, Japan). All microsomal incubations were conducted in triplicate. We used HLMs to determine the mechanisms and constants (Ki values) for […] A inhibition of CYP1A2, CYP2B6, CYP2C8, CYP2C9 and CYP3A. […] The substrates were used at concentrations approximately near to their respective Km values. […] The other conditions were the same as in the cytochrome P450 inhibition study. […] Phenomenex, Torrance, CA, USA) and analyzed using a Shimadzu LCMS 8060 triple-quadrupole mass spectrometer coupled with a Nexera X2 ultra high-performance liquid chromatography system (Shimadzu, Kyoto, Japan) equipped with an electrospray ionization interface. The mobile phase consisted of 0.1% formic acid in water (A) and 0.1% formic acid in acetonitrile (B). […] The flow rate was 0.2 mL/min. Electrospray ionization was performed in positive-ion mode at 4000 V or in negative-ion mode at -3500 V. […] Quantitation was conducted in selected reaction monitoring (SRM) modes with the precursor-to-product ion transition for each metabolite (Table 1 and Table 2). We analyzed the data with Shimadzu LabSolution LC-MS software. The IC50 values were calculated by WinNonlin software (Pharsight, Mountain View, CA, USA). The type of inhibition and the apparent kinetic parameters for inhibitory activity (Ki) were determined by following several criteria: visual inspection of Dixon plots, Lineweaver-Burk double reciprocal plots, and secondary plots of Lineweaver-Burk plots versus biflavonoid concentrations, the size of the sum of squares of the residuals, Akaike Information Criteria values, the S.E. and 95% confidence interval of the parameter estimates from the nonlinear regression analysis using the WinNonlin software. The models tested included competitive, competitive partial, noncompetitive, noncompetitive partial, uncompetitive, uncompetitive partial, and mixed-type inhibition.

Where [1] appears, read: substrate diclofenac 10 µM, pooled HLMs, read-out: IC50, P450 2C9.

Like-named read-outs stand apart in the source and are kept apart here.

Data on six molecules can be found in article PMC7238120, “Strong and Selective Inhibitory Effects of the Biflavonoid Selamariscina A against CYP2C8 and CYP2C9 Enzyme Activities in Human Liver Microsomes” (Pharmaceutics, 2020).

Chain of CYP2C9 (P11712 whole entry): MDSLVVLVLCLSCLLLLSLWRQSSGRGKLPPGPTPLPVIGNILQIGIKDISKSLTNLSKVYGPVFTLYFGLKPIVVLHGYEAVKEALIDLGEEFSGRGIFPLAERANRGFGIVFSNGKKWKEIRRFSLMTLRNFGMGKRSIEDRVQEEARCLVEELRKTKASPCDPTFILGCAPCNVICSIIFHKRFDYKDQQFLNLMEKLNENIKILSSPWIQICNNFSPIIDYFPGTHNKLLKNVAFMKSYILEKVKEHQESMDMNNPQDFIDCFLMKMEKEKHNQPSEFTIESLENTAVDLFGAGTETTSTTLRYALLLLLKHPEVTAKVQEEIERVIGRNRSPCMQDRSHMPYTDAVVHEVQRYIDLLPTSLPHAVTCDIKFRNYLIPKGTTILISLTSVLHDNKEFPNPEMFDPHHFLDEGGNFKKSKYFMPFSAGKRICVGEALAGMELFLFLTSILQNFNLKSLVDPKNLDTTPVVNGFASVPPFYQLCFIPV

For `O=c1cc(-c2ccc(O)c(-c3c(O)cc4oc(-c5ccc(O)cc5)cc(=O)c4c3O)c2)oc2cc(O)cc(O)c12` [robustaflavone], under setting [1], the IC50 came out at 150 nM.
The same measure, in the same setting: for `O=c1cc(-c2ccc(O)c(-c3c(-c4ccc(O)cc4)oc4cc(O)cc(O)c4c3=O)c2)oc2cc(O)cc(O)c12` [taiwaniaflavone] the value was 200 nM.
Take `O=C1CC(c2cc(-c3c(O)ccc4c(=O)cc(-c5ccc(O)cc5)oc34)c(O)cc2O)Oc2cc(O)cc(O)c21` (stereo not shown) [selamariscina A]: where the note is “HLMs”, the “Mode of Inhibition, CYP2C9 diclofenac” value is “Competitive”. For the setting “HLMs, average ± standard error, triplicate”, the inhibitory constant (Ki) was found to be 32 ± 7 nM. Moreover, the inhibition at 10 min, 0.5 µM (human, pooled human liver microsomes, probe diclofenac, inhibitor 0.5 μM, pooled HLMs) was determined as 88.6%. For the same molecule, under setting [1], the IC50 came out at 47 nM.
As for `CC(C)(O)c1ccccc1CC[C@@H](SCC1(CC(=O)O)CC1)c1cccc(/C=C/c2ccc3ccc(Cl)cc3n2)c1` [montelukast, reference compound], the inhibition at 10 min, 5 µM (human, pooled human liver microsomes, probe diclofenac, inhibitor 5 μM, pooled HLMs) amounted to 31%. Moreover, the IC50 under setting [1] amounted to 9730 nM.
For the molecule `O=c1cc(-c2ccc(O)c(-c3c(O)cc(O)c4c(=O)cc(-c5ccc(O)cc5)oc34)c2)oc2cc(O)cc(O)c12` [amentoflavone], the concentration for half-maximal inhibition (IC50) came out at 150 nM.
For the molecule `O=c1cc(-c2ccc(O)cc2)oc2c(-c3c(O)cc(O)c4c(=O)cc(-c5ccc(O)cc5)oc34)c(O)cc(O)c12` [cupressuflavone], under setting [1], the IC50 stood at 210 nM.
